Blank lines part the entries; values can stand above or below the compound they belong to.
Molecular target: T1, BRM (Homo sapiens, UniProt P51531)
T1 construct: In-Cell Western Screen of BRM Degradation in SW1573 Cells; endogenous in cells; host or cells: SW1573
Assay: In-cell Western screen of BRM degradation in SW1573 cells (Dmax and DC50)
Assay type: cell-based
Conditions: BRM degradation, SW1573 cells, Table 2D; for DC50: read-out: *DC50; for Dmax: read-out: **Dmax (%) (% degraded)
Method in brief: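 SW1573 cells were treated with compound overnight (18-20 h; final DMSO 0.1%), then fixed in 4% PFA, permeabilized with Triton X-100 and blocked. BRM was detected by in-cell Western using 800 nm anti-rabbit and 680 nm anti-mouse secondaries, and Dmax and DC50 were derived from the LI-COR Odyssey signal.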

T1 sequence (P51531 whole entry): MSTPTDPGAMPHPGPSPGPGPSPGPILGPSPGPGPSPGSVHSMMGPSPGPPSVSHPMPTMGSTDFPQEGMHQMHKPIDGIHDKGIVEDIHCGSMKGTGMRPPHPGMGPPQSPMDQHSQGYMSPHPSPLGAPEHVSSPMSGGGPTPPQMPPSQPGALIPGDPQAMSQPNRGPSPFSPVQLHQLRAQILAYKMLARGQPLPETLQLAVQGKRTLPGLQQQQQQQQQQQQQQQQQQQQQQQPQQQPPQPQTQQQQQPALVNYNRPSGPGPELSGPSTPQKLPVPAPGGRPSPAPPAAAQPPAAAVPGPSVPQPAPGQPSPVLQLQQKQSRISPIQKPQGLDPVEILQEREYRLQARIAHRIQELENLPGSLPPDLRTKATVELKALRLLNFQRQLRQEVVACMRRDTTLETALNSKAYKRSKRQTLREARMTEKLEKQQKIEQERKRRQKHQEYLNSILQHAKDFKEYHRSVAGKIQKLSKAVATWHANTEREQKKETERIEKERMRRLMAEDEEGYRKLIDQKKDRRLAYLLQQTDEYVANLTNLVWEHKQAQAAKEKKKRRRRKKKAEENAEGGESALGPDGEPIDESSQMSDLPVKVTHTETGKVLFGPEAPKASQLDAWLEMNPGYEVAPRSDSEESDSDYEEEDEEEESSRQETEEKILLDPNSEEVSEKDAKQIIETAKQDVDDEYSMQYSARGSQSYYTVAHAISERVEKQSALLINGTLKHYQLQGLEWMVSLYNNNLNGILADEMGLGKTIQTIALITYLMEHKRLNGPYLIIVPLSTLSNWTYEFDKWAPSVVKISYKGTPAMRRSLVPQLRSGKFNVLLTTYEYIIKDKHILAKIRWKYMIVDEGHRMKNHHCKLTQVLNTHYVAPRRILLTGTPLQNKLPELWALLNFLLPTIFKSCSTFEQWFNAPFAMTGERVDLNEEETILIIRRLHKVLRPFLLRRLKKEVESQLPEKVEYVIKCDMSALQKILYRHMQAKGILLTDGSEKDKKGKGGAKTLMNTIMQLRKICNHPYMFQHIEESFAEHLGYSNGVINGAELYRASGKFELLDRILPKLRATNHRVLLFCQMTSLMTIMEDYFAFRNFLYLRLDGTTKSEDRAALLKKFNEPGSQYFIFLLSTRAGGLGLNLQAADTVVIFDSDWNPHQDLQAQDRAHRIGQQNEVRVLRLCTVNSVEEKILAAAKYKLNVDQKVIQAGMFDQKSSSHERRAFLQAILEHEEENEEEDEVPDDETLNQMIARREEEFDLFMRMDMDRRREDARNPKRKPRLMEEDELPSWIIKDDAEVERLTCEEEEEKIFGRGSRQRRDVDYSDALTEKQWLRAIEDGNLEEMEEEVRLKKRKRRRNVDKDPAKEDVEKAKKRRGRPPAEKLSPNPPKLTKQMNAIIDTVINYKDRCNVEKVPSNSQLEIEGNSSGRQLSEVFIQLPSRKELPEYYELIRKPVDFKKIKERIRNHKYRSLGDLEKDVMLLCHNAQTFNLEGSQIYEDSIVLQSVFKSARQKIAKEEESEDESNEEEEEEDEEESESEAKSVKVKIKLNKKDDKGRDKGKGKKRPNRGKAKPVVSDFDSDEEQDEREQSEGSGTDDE

SMILES: Cc1ncsc1-c1cc(F)c([C@H](C)NC(=O)[C@@H]2C[C@@H](O)CN2C(=O)[C@H](c2cc(OCCN3CCC(O[C@H]4C[C@H](Oc5cc(N6C7CCC6CN(c6cc(-c8ccccc8O)nnc6N)C7)ccn5)C4)CC3)no2)C(C)C)cn1 [compound 540, (2S,4R)-1-((2S)-2-(3-(2-(4-((1r,3S)-3-((4-(3-(3-amino-6-(2-hydroxyphenyl)pyridazin-4-yl)-3,8-diazabicyclo[3.2.1]octan-8-yl)pyridin-2-yl)oxy)cyclobutoxy)piperidin-1-yl)ethoxy)isoxazol-5-yl)-3-methylbutanoyl)-N-((S)-1-(4-fluoro-6-(4-methylthiazol-5-yl)pyridin-3-yl)ethyl)-4-hydroxypyrrolidine-2-carboxamide]
DC50: > 30 nM

SMILES: Cc1ncsc1-c1cc(F)c([C@@H](C)NC(=O)[C@@H]2C[C@@H](O)CN2C(=O)[C@@H](c2cc(OCCN3CCC(O[C@H]4C[C@H](Oc5cc(N6C7CCC6CN(c6cc(-c8ccccc8O)nnc6N)C7)ccn5)C4)CC3)no2)C(C)C)cn1 [compound 541, (2S,4R)-1-((2R)-2-(3-(2-(4-((1r,3R)-3-((4-(3-(3-amino-6-(2-hydroxyphenyl)pyridazin-4-yl)-3,8-diazabicyclo[3.2.1]octan-8-yl)pyridin-2-yl)oxy)cyclobutoxy)piperidin-1-yl)ethoxy)isoxazol-5-yl)-3-methylbutanoyl)-N-((R)-1-(4-fluoro-6-(4-methylthiazol-5-yl)pyridin-3-yl)ethyl)-4-hydroxypyrrolidine-2-carboxamide]
DC50: > 30 nM

SMILES: Cc1ncsc1-c1cc(F)c([C@@H](C)NC(=O)[C@@H]2C[C@@H](O)CN2C(=O)[C@H](c2cc(OCCN3CCC(O[C@H]4C[C@H](Oc5cc(N6C7CCC6CN(c6cc(-c8ccccc8O)nnc6N)C7)ccn5)C4)CC3)no2)C(C)C)cn1 [compound 542, (2S,4R)-1-((2S)-2-(3-(2-(4-((1r,3S)-3-((4-(3-(3-amino-6-(2-hydroxyphenyl)pyridazin-4-yl)-3,8-diazabicyclo[3.2.1]octan-8-yl)pyridin-2-yl)oxy)cyclobutoxy)piperidin-1-yl)ethoxy)isoxazol-5-yl)-3-methylbutanoyl)-N-((R)-1-(4-fluoro-6-(4-methylthiazol-5-yl)pyridin-3-yl)ethyl)-4-hydroxypyrrolidine-2-carboxamide]
DC50: > 30 nM

SMILES: Cc1ncsc1-c1ccc([C@H](C)NC(=O)[C@@H]2C[C@@H](O)CN2C(=O)[C@@H](c2cc(OCC[C@H]3CCN(C[C@H]4C[C@H](Oc5cc(N6C7CCC6CN(c6cc(-c8ccccc8O)nnc6N)C7)ccn5)C4)[C@@H](C)C3)no2)C(C)C)cc1 [compound 548, (2S,4R)-1-((2R)-2-(3-(2-((2S,4S)-1-(((1r,3S)-3-((4-(3-(3-amino-6-(2-hydroxyphenyl)pyridazin-4-yl)-3,8-diazabicyclo[3.2.1]octan-8-yl)pyridin-2-yl)oxy)cyclobutyl)methyl)-2-methylpiperidin-4-yl)ethoxy)isoxazol-5-yl)-3-methylbutanoyl)-4-hydroxy-N-((S)-1-(4-(4-methylthiazol-5-yl)phenyl)ethyl)pyrrolidine-2-carboxamide]
Dmax: > 75% | DC50: < 2.5 nM

DC50: > 30 nM
SMILES: Cc1ncsc1-c1ccc([C@H](C)NC(=O)[C@@H]2C[C@@H](O)CN2C(=O)[C@H](c2cc(N3CC(COCCOc4cc(N5C6CCC5CN(c5cc(-c7ccccc7O)nnc5N)C6)ccn4)C3)no2)C(C)C)cc1 [compound 549, (2S,4R)-1-((2S)-2-(3-(3-((2-((4-(3-(3-amino-6-(2-hydroxyphenyl)pyridazin-4-yl)-3,8-diazabicyclo[3.2.1]octan-8-yl)pyridin-2-yl)oxy)ethoxy)methyl)azetidin-1-yl)isoxazol-5-yl)-3-methylbutanoyl)-4-hydroxy-N-((S)-1-(4-(4-methylthiazol-5-yl)phenyl)ethyl)pyrrolidine-2-carboxamide]

SMILES: Cc1ncsc1-c1ccc([C@H](C)NC(=O)[C@@H]2C[C@@H](O)CN2C(=O)[C@@H](c2cc(N3CC(COCCOc4cc(N5C6CCC5CN(c5cc(-c7ccccc7O)nnc5N)C6)ccn4)C3)no2)C(C)C)cc1 [compound 550, (2S,4R)-1-((2R)-2-(3-(3-((2-((4-(3-(3-amino-6-(2-hydroxyphenyl)pyridazin-4-yl)-3,8-diazabicyclo[3.2.1]octan-8-yl)pyridin-2-yl)oxy)ethoxy)methyl)azetidin-1-yl)isoxazol-5-yl)-3-methylbutanoyl)-4-hydroxy-N-((S)-1-(4-(4-methylthiazol-5-yl)phenyl)ethyl)pyrrolidine-2-carboxamide]
Dmax: > 75% | DC50: < 2.5 nM

SMILES: Cc1ncsc1-c1cc(F)c([C@H](C)NC(=O)[C@@H]2C[C@@H](O)CN2C(=O)[C@H](c2cc(OCCC3CCN(C[C@H]4C[C@H](Oc5cc(N6C7CCC6CN(c6cc(-c8ccccc8O)nnc6N)C7)ccn5)C4)CC3)no2)C(C)C)cc1F [compound 551, (2S,4R)-1-((2S)-2-(3-(2-(1-(((1r,3S)-3-((4-(3-(3-amino-6-(2-hydroxyphenyl)pyridazin-4-yl)-3,8-diazabicyclo[3.2.1]octan-8-yl)pyridin-2-yl)oxy)cyclobutyl)methyl)piperidin-4-yl)ethoxy)isoxazol-5-yl)-3-methylbutanoyl)-N-((S)-1-(2,5-difluoro-4-(4-methylthiazol-5-yl)phenyl)ethyl)-4-hydroxypyrrolidine-2-carboxamide]
Dmax: > 75% | DC50: < 2.5 nM

SMILES: Cc1ncsc1-c1cc(F)c([C@H](C)NC(=O)[C@@H]2C[C@@H](O)CN2C(=O)[C@@H](c2cc(OCCC3CCN(C[C@H]4C[C@H](Oc5cc(N6C7CCC6CN(c6cc(-c8ccccc8O)nnc6N)C7)ccn5)C4)CC3)no2)C(C)C)cc1F [compound 552, (2S,4R)-1-((2R)-2-(3-(2-(1-(((1r,3R)-3-((4-(3-(3-amino-6-(2-hydroxyphenyl)pyridazin-4-yl)-3,8-diazabicyclo[3.2.1]octan-8-yl)pyridin-2-yl)oxy)cyclobutyl)methyl)piperidin-4-yl)ethoxy)isoxazol-5-yl)-3-methylbutanoyl)-N-((S)-1-(2,5-difluoro-4-(4-methylthiazol-5-yl)phenyl)ethyl)-4-hydroxypyrrolidine-2-carboxamide]
Dmax: > 75% | DC50: < 2.5 nM

SMILES: Cc1nccn1-c1ccc([C@H](C)NC(=O)[C@@H]2C[C@@H](O)CN2C(=O)[C@@H](c2cc(OCCN3CCN(CCOc4cc(N5C6CCC5CN(c5cc(-c7ccccc7O)nnc5N)C6)ccn4)C[C@@H]3C)no2)C(C)C)cc1 [compound 553, (2S,4R)-1-((2R)-2-(3-(2-((2S)-4-(2-((4-(3-(3-amino-6-(2-hydroxyphenyl)pyridazin-4-yl)-3,8-diazabicyclo[3.2.1]octan-8-yl)pyridin-2-yl)oxy)ethyl)-2-methylpiperazin-1-yl)ethoxy)isoxazol-5-yl)-3-methylbutanoyl)-4-hydroxy-N-((S)-1-(4-(2-methyl-1H-imidazol-1-yl)phenyl)ethyl) pyrrolidine-2-carboxamide]
Dmax: > 75% | DC50: < 2.5 nM

SMILES: Cc1ncsc1-c1ccc([C@H](C)NC(=O)[C@@H]2C[C@@H](O)CN2C(=O)[C@@H](c2cc(OCCN3CCC(CCOc4cc(N5C6CCC5CN(c5cc(-c7ccccc7O)nnc5N)C6)ccn4)CC3)no2)C(C)C)cc1 [compound 554, (2S,4R)-1-((2R)-2-(3-(2-(4-(2-((4-(3-(3-amino-6-(2-hydroxyphenyl)pyridazin-4-yl)-3,8-diazabicyclo[3.2.1]octan-8-yl)pyridin-2-yl)oxy)ethyl)piperidin-1-yl)ethoxy)isoxazol-5-yl)-3-methylbutanoyl)-4-hydroxy-N-((S)-1-(4-(4-methylthiazol-5-yl)phenyl)ethyl)pyrrolidine-2-carboxamide]
Dmax: > 75% | DC50: < 2.5 nM

SMILES: Cc1ncsc1-c1ccc([C@H](CCCC(N)=O)NC(=O)[C@@H]2C[C@@H](O)CN2C(=O)[C@H](c2cc(OCCN3CCC(O[C@H]4C[C@H](Oc5cc(N6C7CCC6CN(c6cc(-c8ccccc8O)nnc6N)C7)ccn5)C4)CC3)no2)C(C)C)cc1 [compound 555, (2S,4R)-N-((S)-5-amino-1-(4-(4-methylthiazol-5-yl)phenyl)-5-oxopentyl)-1-((2S)-2-(3-(2-(4-((1r,3S)-3-((4-(3-(3-amino-6-(2-hydroxyphenyl)pyridazin-4-yl)-3,8-diazabicyclo[3.2.1]octan-8-yl)pyridin-2-yl)oxy)cyclobutoxy)piperidin-1-yl)ethoxy)isoxazol-5-yl)-3-methylbutanoyl)-4-hydroxypyrrolidine-2-carboxamide]
DC50: > 30 nM

SMILES: Cc1ncsc1-c1ccc([C@H](CCCC(N)=O)NC(=O)[C@@H]2C[C@@H](O)CN2C(=O)[C@@H](c2cc(OCCN3CCC(O[C@H]4C[C@H](Oc5cc(N6C7CCC6CN(c6cc(-c8ccccc8O)nnc6N)C7)ccn5)C4)CC3)no2)C(C)C)cc1 [compound 556, (2S,4R)-N-((S)-5-amino-1-(4-(4-methylthiazol-5-yl)phenyl)-5-oxopentyl)-1-((2R)-2-(3-(2-(4-((1r,3R)-3-((4-(3-(3-amino-6-(2-hydroxyphenyl)pyridazin-4-yl)-3,8-diazabicyclo[3.2.1]octan-8-yl)pyridin-2-yl)oxy)cyclobutoxy)piperidin-1-yl)ethoxy)isoxazol-5-yl)-3-methylbutanoyl)-4-hydroxypyrrolidine-2-carboxamide]
Dmax: > 75% | DC50: < 2.5 nM

SMILES: Cc1cc([C@@H](C(=O)N2C[C@H](O)C[C@H]2C(=O)N[C@@H](C)c2ccc(-c3scnc3C)cc2)[C@H](C)COCCCCn2cc(-c3cc(-c4ccccc4O)nnc3N)cn2)on1 [compound 557, (2S,4R)-1-((2S,3S)-4-(4-(4-(3-amino-6-(2-hydroxyphenyl)pyridazin-4-yl)-1H-pyrazol-1-yl)butoxy)-3-methyl-2-(3-methylisoxazol-5-yl)butanoyl)-4-hydroxy-N-((S)-1-(4-(4-methylthiazol-5-yl)phenyl)ethyl) pyrrolidine-2-carboxamide]
DC50: > 30 nM
